Reference: PMC12718228 (Applied Biochemistry and Biotechnology, 2025)

Experiments:
[1] = biological target: T1, SALDAP (6xHis-SALDAP), salicylaldehyde dehydrogenase (soil metagenome, UniProt Z9QUQ6R3A5); assay: X-ray crystallography, electron density in active site; assay type: binding; conditions: two conformations; structure first reported in the group's earlier paper
T1 construct: full-length ORF, N-terminal 6xHis tag kept (pLATE51), E. coli BL21(DE3); homodimer about 110-115 kDa

[2] = biological target: T1, SALDAP (6xHis-SALDAP), salicylaldehyde dehydrogenase; assay: differential scanning fluorimetry, SYPRO Orange; assay type: binding; conditions: 50 mM HEPES pH 7.4
Description: differential scanning fluorimetry, SYPRO Orange on SALDAP (6xHis-SALDAP), salicylaldehyde dehydrogenase

[3] = biological target: T1, SALDAP (6xHis-SALDAP), salicylaldehyde dehydrogenase; assay: NADH formation at […] nm, substrate inhibition fit; assay type: biochemical; conditions: 50 µM NAD+, 100 mM Tricine pH 8.0, 25 °C, 1.7% DMSO

| Structure (SMILES) | Tm ^oC ([2]; 2 mM ligand with 1.5 mM NAD+) | also measured |
| --- | --- | --- |
| O=Cc1ccc2ccccc2c1 [2-naphthaldehyde] |  | X-ray crystallography, electron density in active site [1]: electron density as seen in the active site of SALDAP after refinement using 2-naphthaldehyde |
| O=Cc1ccc(O)c(O)c1 [3,4-dihydroxybenzaldehyde] | 71.0 ± 0.0 °C |  |
| O=Cc1ccc(O)cc1 [4-hydroxybenzaldehyde] | 70.0 ± 0.3 °C |  |
| O=Cc1ccccc1 [Benzaldehyde] |  | Ki [3]: 5.02 ± 1.84 µM |
| NC(=O)c1ccc[n+]([C@@H]2O[C@H](COP(=O)(O)OP(=O)(O)OC[C@H]3O[C@@H](n4cnc5c(N)ncnc54)[C@H](O)[C@@H]3O)[C@@H](O)[C@H]2O)c1 [NAD+] |  | Tm ^oC ([2]; 1.5 mM NAD+ alone): 68.7 ± 0.3 °C |
| COc1cc(C=O)ccc1O [Vanillin] | 69.6 ± 0.4 °C |  |
